Test results as given in patent US20110189251A1, “COMPOUNDS AND COMPOSITIONS FOR THE CONTROL OF PESTS” (priority 2007, published 2011).

Experiments:
[1] = system: adult German cockroaches, Blattella germanica; assay: Insecticidal action, time-to-death of adult German cockroaches after 10 μL on the back; assay type: in vivo; settings: regardless of male or female
Experimental: Material and Methods: Ten μL of either BioUD 10, pure 2-Undecanone, or Raid were separately applied to the backs (thorax and wings) of adult German cockroaches, Blattella germanica. Insects were separately placed into FLUON®-treated diet cups (Vol.=30 mL, lower diam.=3 cm, height=4 cm) to prevent escape of treated specimens.

[2] = system: Eastern subterranean termite, Reticulitermes flavipes; assay: Killing activity in termites, compound pipetted onto back; assay type: in vivo; settings: adults, 1 μL

CCCCCCCCCC(C)=O [2-Undecanone, 2-undecanone]
speed of kill relative to the formulated product (BioUD10) [1]: ~2 × | Time-to-death (sec), mean ([2]; castes w and s together): 171.5 s | Time-to-death ([2]; caste s, single insects): 146 s
